According to patent US20090076029A1 (Palatin Technologies, Inc., priority 2007, published 2009):

Tests used:
[1] = target: T1, MC1-R; assay: Competitive inhibition assay using [I125]-NDP-α-MSH, MC1-R membranes; assay type: binding, mouse
T1 construct: other: 1 μM compound

[2] = tested on: T2, hMC5-R; assay: cAMP functional assay, HEK-293 cells expressing hMC5-R; assay type: cell-based, human; conditions: cAMP assay at 1 μM
T2 construct: expressed in transfected cells; host or cells: HEK-293

Q: Which Ki [1] does the source give for `CC(C)C[C@@H]1CN(C(=O)[C@H](N)Cc2ccc(Cl)cc2Cl)[C@@H](CCCNC(=N)N)CN1CCc1ccc2ccccc2c1` [Example 4, N-{3-[1-[2(R)-Amino-3-(2,4-dichloro-phenyl)-propionyl]-5(R)-isobutyl-4-(2-naphthalen-2-yl-ethyl)-piperazin-2(S)-yl]-propyl}-guanidine] here?
A: 1360 nM

Q: And the “Inhibition at 1 μM (NDP-α-MSH) MC1-R” value ([1]; 1 μM compound)?
A: 21%

Q: What about the “functional status at MC5-R” value [2] of the same compound?
A: partial agonist (intrinsic activity between 0.1 (10%) and 0.7 (70%) is classified as a partial agonist)
